# Test results published in patent US9724408B2, “Compositions and methods for activating stimulator of interferon gene-dependent signalling” (ADURO BIOTECH, INC., priority 2013, dated 2017).
# Key:
# primary human PBMCs [1] = test: Secreted interferon protein in primary human PBMCs (CBA, ELISA); format: cell-based; details: 24 hours, four donors
# Protocol: (§1) To determine the levels of IFN-α, -β and -γ induced by cyclic [G(2′,5′)pG(3′,5′)p] (ML-CDG) compared to cyclic [G(3′,5′)pG(3′,5′)p] as a signature of potency to activate innate immunity, 1×10^6 primary human PBMCs isolated from four independent human donors were incubated in a 96 well U bottom plate for 30 min at 37° C., 5% CO2 with 5 or 0.5 μM of cyclic [G(3′,5′)pG(3′,5′)p] (CDG) or cyclic [G(2′,5′)pG(3′,5′)p] (ML-CDG), 1 μg/mL of Interferon Stimulatory DNA (ISD), or 4 μg/mL of Poly (I:C) utilizing Effectene transfection reagent (Qiagen) to transfer the molecules into the PBMC. ISD (Interferon Stimulating DNA) is TLR independent (Stetston, D. B. et. al. Immunity 24, 93-103, January 2006) and signals through cGAS, and is thus STING-dependent, while Poly (I:C) can signal through both TLR3 and RIG-I pathways, and are thus STING-independent. After 30 minutes, the cells were washed and replaced with RPMI media containing 10% FBS and incubated at 37° C., 5% CO2. After 6 hrs incubation, a portion of the cells were harvested and assessed by real-time quantitative RT-PCR for gene expression of the type I cytokines interferon alpha 2 (IFNA2) and interferon beta 1 (IFNB1), and the type II cytokine gene interferon gamma (IFNG). Gene expression was determined by real-time quantitative RT-PCR using the PrimePCR RNA purification and cDNA analysis system, and run on the CFX96 gene cycler (all BioRad). Normalized expression was determined for each, which accounts for the different efficiencies of PCR amplification for the target (Etarget) and the reference (Ereference), and transforms the logarithmic scaled raw data unit Cycle Threshold (CT) into the linear unit of Normalized Expression. […] To assess correlative secreted protein levels of these cytokines, supernatants were harvested from the remaining cells after 24 hours incubation and IFN-α and -γ levels were determined by Cytometric Bead Array (CBA, BD Biosciences), while IFN-β levels were determined by ELISA (PBL).
# primary human PBMCs [2] = test: Interferon gene expression in primary human PBMCs (real-time quantitative RT-PCR); format: cell-based; details: 5 μM, Effectene transfection, 6 hrs, four donors, FIG. 8
# Protocol: as §1
# THP1-Blue™ ISG cells = test: Type I interferon induction in THP1-Blue ISG reporter cells (QUANTI-Blue, A655); format: cell-based, human; details: 100 μM for 30 minutes, supernatants after overnight incubation, FIG. 7
# Protocol: To determine the relative level of type I interferon induced in human cells by each of the native and derivative molecules as a signature of adjuvant potency, 4×10^5 THP1-Blue™ ISG cells (a human monocyte cell line transfected with an IRF-inducible secreted embryonic alkaline phosphatase reporter gene (Invivogen) which express alkaline phosphatase under the control of a promoter comprised of five IFN-stimulated response elements) were incubated with 100 μM of cyclic [G(3′,5′)pG(3′,5′)p] (CDG), cyclic [G(2′,5′)pG(3′,5′)p] (mixed linkage, or ML-CDG), or HBSS for 30 minutes at 37° C. with 5% CO2. After 30 minutes, cells were washed and plated in 96-well dish in RPMI media containing 10% FBS, and incubated at 37° C. with 5% CO2. Cell culture supernatants from each sample were collected after overnight incubation, and 20 μL of the cell culture supernatants was added to 180 μL QUANTI-Blue reagent (Invivogen) and incubated for 45 minutes to evaluate type I interferon protein levels. Readings at Absorbance 655 nm were taken every 3 minutes using a Versa Max kinetic spectrophotometer (Molecular Diagnostics).
# […]. After 30 minutes, cells were washed and plated in 96-well dish in RPMI media containing 10% FBS, and incubated at 37° C. with 5% CO2. Cell culture supernatants from each sample were collected after overnight incubation, and 20 μL of the cell culture supernatants was added to 180 μL QUANTI-Blue reagent (Invivogen) and incubated for 45 minutes. Readings at Absorbance 655 nm were taken at 15 minutes using a SpectraMax spectrophotometer (Molecular Diagnostics).
# The induction of type I interferon in human cells was measured to evaluate the potency of untreated and phosphodiesterase-treated oxo, Rp monothio and Rp, Rp dithio derivatives. […]. After 30 minutes, cells were washed and plated in a 96-well dish in RPMI media containing 10% FBS, and incubated at 37° C. with 5% CO2. Cell culture supernatants from each sample were collected after 16 hr incubation, and 20 μL of the cell culture supernatants was added to 180 μL QUANTI-Blue reagent (Invivogen) and incubated for 25 minutes to evaluate type I interferon protein levels. Readings at Absorbance 655 nm were measured with a Versa Max spectrophotometer (Molecular Diagnostics).
# OVA257-264 peptide [3] = test: OVA-specific CD8 T cell response in goldenticket (STING−/−) mice (IFNγ ELISpot); format: in vivo; details: 25 μg in 2% squalene-and-water with 10 μg ovalbumin, subcutaneous, day 7, FIG. 17
# Protocol: To determine whether STING signaling is required for c[G(2′,5′)pG(3′,5′)p] (ML-CDG) to induce an OVA-specific CD8 T cell response, C57BL/6 mice (n=3 or 5) and goldenticket mice (n=3) were immunized subcutaneously with either 0 μg (no CDN) or 25 μg c[G(2′,5′)pG(3′,5′)p] (ML-CDG) formulated in 2% squalene-and-water with 10 μg ovalbumin protein. Seven days following the vaccination, blood was collected from each animal, and PBMCs were prepared. 5×10^4 PBMCs were stimulated overnight in an IFNγ ELISpot assay with media alone (unstimulated) or with 1 μM OVA257-264 peptide in the presence of 1×10^5 naïve splenocytes as feeder cells. IFNγ ELISpots were developed and quantified using a CTL plate reader and ImmunoSpot software.
# OVA257-264 peptide [4] = test: OVA-specific CD8 T cell response after CDN-adjuvanted OVA vaccination (IFNγ ELISpot); format: in vivo, C57BL/6 mice; details: subcutaneous
# Protocol: To determine the OVA-specific CD8 T cell response induced by the different cyclic dinucleotide molecules, C57BL/6 mice (n=5) were immunized subcutaneously with 0 μg (no CDN) or 5 μg or 25 μg [G(2′,5′)pG(3′,5′)p] (mixed linkage or ML-CDG) formulated in 2% squalene-and-water with 10 μg ovalbumin protein. Seven days following the vaccination, blood was collected from each animal, and PBMCs were prepared. 5×10^4 PBMCs were stimulated overnight in an IFNγ ELISpot assay with media alone (unstimulated) or with 1 μM OVA257-264 peptide in the presence of 1×10^5 naïve splenocytes as feeder cells. IFNγ ELISpots were developed and quantified using a CTL plate reader and ImmunoSpot software.
# To determine whether STING signaling is required for c[G(2′,5′)pG(3′,5′)p] (ML-CDG) to induce an OVA-specific CD8 T cell response, C57BL/6 mice (n=3 or 5) and goldenticket mice (n=3) were immunized subcutaneously with either 0 μg (no CDN) or 25 μg c[G(2′,5′)pG(3′,5′)p] (ML-CDG) formulated in 2% squalene-and-water with 10 μg ovalbumin protein. Seven days following the vaccination, blood was collected from each animal, and PBMCs were prepared. […] IFNγ ELISpots were developed and quantified using a CTL plate reader and ImmunoSpot software.
structure (smiles),measurement,setting,value
"Nc1nc2c(ncn2C2OC3COP(=O)(O)OC4C(O)C(COP(=O)(O)OC3C2O)OC4n2cnc3c(=O)[nH]c(N)nc32)c(=O)[nH]1 (stereo not shown) [ML-CDG, cyclic-[G(2′,5′)pG(3′,5′)p]]",secretion of IFN-γ,"primary human PBMCs [1]; 5 μM and 0.5 μM, CBA, FIG. 9(c)","higher levels of IFN-γ than cyclic [G(3′,5′)pG(3′,5′)p] at the same doses, and higher levels than the ISD and Poly I:C controls"
same,levels of secreted IFN-α,"primary human PBMCs [1]; 5 μM, CBA, FIG. 9(a)","higher than cyclic [G(3′,5′)pG(3′,5′)p] at the same or lower dose"
same,levels of IFN-β,"primary human PBMCs [1]; 5 μM, ELISA, FIG. 9(b)","higher than with cyclic [G(3′,5′)pG(3′,5′)p] induced levels, as well as for the ISD and Poly I:C controls"
same,gene expression for interferon gamma (IFNG),primary human PBMCs [2],significantly higher level
same,gene expression of interferon alpha 2 (IFNA2),primary human PBMCs [2],significantly higher
same,gene expression of interferon beta 1 (IFNB1),primary human PBMCs [2],significantly higher
same,levels of IFN-β (type I interferon protein levels),THP1-Blue™ ISG cells,"significantly higher levels of IFN-β than cyclic [G(3′,5′)pG(3′,5′)p]"
same,"OVA-specific CD8 T cell response, goldenticket mice",OVA257-264 peptide [3],not significantly different than the OVA-specific responses induced by a control formulation that does not include CDN
same,OVA-specific CD8 immune responses,"OVA257-264 peptide [4]; 5 μg or 25 μg in 2% squalene-and-water with 10 μg ovalbumin, day 7, FIG. 16",significantly higher than responses induced by unstimulated controls and by a no CDN control group
same,"OVA-specific CD8 T cell response, wild-type mice","OVA257-264 peptide [4]; 25 μg in 2% squalene-and-water with 10 μg ovalbumin, day 7, FIG. 17",induces significant OVA257-264 immune responses compared to unstimulated control and a no CDN control
